These results are taken from patent EP3212201B1, “NUCLEOSIDE KINASE INHIBITORS” (BCI Pharma, priority 2014, dated 2016).

What all share (experiment): FRET-based coupled-enzyme protein kinase inhibition assay
Format in all cases: biochemical
What all share (conditions): compound at 10 µM, 1% DMSO

Experiment [1] deals with LCK (Homo sapiens, UniProt P06239). In short, it runs like this: (§1)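 FRET peptide (coumarin donor, fluorescein acceptor) was phosphorylated by each kinase in 50 mM HEPES pH 7.5, 10 mM MgCl2, 1 mM EDTA, 0.01% BRIJ-35 for 60 min at room temperature. ATP was at apparent Km, compounds in 1% DMSO. Protease development reagent then cleaved non-phosphorylated peptide over 60 min.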

For experiment [2], the target named is AKT1 (PKB alpha) (Homo sapiens, UniProt P31749). In short, it runs like this:
as §1

In experiment [3] the target is TEK (Tie2) (Homo sapiens, UniProt Q02763). In short, it runs like this: as §1
The target of experiment [4] is MARK2 (Homo sapiens, UniProt Q7KZI7). In outline:
as §1

Experiment [5] has as its target ABL1 (Homo sapiens, UniProt P00519). In short, it runs like this:
as §1

In experiment [6] the target is MAP4K4 (HGK) (Homo sapiens, UniProt O95819). In short, it runs like this: as §1
Experiment [7] deals with PLK1 (Homo sapiens, UniProt P53350). In outline:
as §1

For experiment [8], the target named is AMPK A1/B1/G1 (Homo sapiens, UniProt Q13131). In outline: as §1
The target in experiment [9] is CDK1/cyclin B (Homo sapiens, UniProt P06493). In outline: as §1
For experiment [10], the target named is RPS6KA3 (RSK2) (Homo sapiens, UniProt P51812). In outline: as §1
The target in experiment [11] is PAK4 (Homo sapiens, UniProt O96013). In short, it runs like this:
as §1

In experiment [12] the target is T1, CHEK1 (CHK1) (Homo sapiens, UniProt O14757).
T1 sequence (O14757 1-476): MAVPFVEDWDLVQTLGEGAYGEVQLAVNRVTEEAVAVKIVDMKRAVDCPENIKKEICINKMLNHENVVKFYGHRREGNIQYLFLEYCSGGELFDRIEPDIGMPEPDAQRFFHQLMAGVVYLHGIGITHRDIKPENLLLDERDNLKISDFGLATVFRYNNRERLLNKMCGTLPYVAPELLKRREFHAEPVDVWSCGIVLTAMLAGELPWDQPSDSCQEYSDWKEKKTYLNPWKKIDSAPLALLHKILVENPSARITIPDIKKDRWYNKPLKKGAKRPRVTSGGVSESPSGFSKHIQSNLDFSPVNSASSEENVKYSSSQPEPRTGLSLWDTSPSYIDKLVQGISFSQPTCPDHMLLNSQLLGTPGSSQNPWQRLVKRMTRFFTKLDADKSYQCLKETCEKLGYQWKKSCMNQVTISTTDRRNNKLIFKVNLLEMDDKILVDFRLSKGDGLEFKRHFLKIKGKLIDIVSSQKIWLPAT
In outline:
as §1

The target of experiment [13] is RPS6KB1 (p70S6K) (Homo sapiens, UniProt P23443). In outline: as §1
Experiment [14] addresses PIM1 (Homo sapiens, UniProt P11309). In short, it runs like this: as §1
Experiment [15] concerns the target CSNK2A1 (CK2 alpha 1) (Homo sapiens, UniProt P68400). In short, it runs like this: as §1

Sequence of TEK (Tie2) (Q02763 23-1124, species assumed): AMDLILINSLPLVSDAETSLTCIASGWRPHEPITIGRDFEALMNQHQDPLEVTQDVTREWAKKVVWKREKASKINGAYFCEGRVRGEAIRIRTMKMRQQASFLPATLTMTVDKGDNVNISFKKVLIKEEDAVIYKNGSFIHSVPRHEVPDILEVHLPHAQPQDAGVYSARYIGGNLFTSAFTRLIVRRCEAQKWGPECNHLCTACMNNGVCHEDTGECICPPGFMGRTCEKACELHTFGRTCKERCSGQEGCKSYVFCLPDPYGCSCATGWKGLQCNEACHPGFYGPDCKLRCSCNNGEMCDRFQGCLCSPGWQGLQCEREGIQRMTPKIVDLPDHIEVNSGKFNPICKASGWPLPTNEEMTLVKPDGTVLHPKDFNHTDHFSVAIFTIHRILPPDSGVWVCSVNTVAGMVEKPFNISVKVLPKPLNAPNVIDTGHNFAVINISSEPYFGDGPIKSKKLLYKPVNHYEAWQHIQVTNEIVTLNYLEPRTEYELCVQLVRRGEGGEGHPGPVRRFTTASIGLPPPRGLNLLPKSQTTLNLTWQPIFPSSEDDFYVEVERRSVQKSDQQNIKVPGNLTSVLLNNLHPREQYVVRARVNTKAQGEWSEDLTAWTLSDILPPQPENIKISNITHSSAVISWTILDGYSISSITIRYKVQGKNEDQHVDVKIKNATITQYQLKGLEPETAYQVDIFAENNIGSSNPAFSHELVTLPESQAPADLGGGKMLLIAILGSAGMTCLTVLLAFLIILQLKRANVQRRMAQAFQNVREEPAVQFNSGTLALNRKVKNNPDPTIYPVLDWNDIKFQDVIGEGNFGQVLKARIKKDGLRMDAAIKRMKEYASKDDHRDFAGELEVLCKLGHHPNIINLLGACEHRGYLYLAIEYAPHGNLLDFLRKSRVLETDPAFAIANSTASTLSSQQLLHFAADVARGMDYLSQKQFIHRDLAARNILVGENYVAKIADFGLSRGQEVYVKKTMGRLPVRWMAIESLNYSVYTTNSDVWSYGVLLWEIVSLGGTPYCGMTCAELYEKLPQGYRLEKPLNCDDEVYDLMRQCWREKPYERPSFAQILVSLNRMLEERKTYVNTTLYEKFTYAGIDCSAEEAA
Sequence of RPS6KA3 (RSK2) (P51812 whole entry, species assumed): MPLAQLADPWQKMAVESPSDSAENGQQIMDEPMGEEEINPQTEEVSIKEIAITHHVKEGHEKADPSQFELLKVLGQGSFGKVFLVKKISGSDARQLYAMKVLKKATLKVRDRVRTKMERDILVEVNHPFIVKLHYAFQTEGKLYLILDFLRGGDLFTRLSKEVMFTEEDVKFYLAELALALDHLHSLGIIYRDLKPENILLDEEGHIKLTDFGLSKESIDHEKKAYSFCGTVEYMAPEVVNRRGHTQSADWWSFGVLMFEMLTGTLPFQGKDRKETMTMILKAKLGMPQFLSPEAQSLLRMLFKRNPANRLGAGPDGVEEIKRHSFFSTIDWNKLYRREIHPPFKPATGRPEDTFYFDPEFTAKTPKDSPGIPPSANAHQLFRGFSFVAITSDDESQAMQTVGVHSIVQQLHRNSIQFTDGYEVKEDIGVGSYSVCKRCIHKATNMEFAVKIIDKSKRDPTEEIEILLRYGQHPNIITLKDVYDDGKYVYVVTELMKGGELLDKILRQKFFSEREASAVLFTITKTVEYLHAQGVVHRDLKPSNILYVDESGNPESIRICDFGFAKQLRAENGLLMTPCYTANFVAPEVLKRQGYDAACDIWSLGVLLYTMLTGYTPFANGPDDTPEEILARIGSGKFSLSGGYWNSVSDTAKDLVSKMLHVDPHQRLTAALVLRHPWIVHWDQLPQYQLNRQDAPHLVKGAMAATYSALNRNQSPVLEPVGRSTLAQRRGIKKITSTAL
Sequence of MARK2 (Q7KZI7 whole entry, species assumed): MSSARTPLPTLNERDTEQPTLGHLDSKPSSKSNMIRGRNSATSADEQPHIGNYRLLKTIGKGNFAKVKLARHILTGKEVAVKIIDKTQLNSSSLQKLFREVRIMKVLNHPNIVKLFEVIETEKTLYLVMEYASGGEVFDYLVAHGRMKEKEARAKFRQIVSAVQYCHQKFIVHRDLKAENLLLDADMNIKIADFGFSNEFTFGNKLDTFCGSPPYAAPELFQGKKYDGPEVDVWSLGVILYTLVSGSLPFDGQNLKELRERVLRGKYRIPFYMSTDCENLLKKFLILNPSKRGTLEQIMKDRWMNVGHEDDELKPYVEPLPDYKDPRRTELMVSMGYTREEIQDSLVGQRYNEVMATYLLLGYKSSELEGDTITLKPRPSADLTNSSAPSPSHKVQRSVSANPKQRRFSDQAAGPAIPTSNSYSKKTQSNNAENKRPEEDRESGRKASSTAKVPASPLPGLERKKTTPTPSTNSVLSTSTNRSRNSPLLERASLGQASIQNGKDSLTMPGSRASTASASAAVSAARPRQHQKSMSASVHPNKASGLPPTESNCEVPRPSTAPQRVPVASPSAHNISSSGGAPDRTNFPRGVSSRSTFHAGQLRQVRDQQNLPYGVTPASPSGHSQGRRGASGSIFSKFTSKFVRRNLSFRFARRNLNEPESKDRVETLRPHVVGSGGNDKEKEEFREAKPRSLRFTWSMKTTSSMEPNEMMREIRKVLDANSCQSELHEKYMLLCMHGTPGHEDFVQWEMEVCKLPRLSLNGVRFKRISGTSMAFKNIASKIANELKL
Sequence of MAP4K4 (HGK) (O95819 whole entry, species assumed): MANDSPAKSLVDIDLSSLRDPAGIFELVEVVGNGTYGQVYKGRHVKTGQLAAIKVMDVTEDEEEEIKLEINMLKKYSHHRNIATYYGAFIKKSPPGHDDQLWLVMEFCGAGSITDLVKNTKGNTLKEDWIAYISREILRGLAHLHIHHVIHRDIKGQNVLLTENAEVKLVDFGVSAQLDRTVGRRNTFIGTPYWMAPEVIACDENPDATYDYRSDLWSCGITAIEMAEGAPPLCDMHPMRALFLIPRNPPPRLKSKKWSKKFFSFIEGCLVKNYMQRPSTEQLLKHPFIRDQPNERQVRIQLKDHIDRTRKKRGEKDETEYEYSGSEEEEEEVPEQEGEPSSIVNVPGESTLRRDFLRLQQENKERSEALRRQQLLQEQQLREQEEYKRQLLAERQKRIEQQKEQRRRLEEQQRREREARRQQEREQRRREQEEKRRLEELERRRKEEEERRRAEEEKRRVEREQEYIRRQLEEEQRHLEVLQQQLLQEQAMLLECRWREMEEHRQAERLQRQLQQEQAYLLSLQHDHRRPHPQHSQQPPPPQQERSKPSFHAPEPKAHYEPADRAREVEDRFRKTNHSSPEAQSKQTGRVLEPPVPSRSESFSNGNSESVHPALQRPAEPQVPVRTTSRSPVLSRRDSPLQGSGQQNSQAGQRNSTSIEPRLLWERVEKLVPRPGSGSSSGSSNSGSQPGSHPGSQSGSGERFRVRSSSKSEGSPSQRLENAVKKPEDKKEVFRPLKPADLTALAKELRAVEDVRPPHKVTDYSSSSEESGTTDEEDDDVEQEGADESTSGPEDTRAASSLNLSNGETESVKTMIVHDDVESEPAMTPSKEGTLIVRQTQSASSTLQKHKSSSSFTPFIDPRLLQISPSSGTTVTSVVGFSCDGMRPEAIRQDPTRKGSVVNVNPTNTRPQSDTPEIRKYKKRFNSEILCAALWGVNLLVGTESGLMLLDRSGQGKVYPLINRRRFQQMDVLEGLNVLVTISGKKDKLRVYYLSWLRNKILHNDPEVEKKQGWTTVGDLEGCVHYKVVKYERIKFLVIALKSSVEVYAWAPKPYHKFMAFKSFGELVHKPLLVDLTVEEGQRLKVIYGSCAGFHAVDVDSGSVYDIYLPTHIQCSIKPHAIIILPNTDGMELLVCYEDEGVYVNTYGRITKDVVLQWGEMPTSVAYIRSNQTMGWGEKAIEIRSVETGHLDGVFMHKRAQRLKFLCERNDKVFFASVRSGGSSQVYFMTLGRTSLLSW
Sequence of CDK1/cyclin B (P06493 whole entry, species assumed): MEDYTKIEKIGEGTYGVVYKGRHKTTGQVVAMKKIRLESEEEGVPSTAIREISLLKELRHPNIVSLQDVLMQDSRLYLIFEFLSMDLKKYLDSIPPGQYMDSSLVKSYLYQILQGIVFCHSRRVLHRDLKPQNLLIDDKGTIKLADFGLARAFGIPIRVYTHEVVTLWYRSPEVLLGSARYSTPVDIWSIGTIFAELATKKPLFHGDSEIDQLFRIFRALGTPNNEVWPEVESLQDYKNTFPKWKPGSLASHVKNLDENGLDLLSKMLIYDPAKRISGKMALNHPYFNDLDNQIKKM
Sequence of CDK1/cyclin B (P14635 whole entry partner, species assumed): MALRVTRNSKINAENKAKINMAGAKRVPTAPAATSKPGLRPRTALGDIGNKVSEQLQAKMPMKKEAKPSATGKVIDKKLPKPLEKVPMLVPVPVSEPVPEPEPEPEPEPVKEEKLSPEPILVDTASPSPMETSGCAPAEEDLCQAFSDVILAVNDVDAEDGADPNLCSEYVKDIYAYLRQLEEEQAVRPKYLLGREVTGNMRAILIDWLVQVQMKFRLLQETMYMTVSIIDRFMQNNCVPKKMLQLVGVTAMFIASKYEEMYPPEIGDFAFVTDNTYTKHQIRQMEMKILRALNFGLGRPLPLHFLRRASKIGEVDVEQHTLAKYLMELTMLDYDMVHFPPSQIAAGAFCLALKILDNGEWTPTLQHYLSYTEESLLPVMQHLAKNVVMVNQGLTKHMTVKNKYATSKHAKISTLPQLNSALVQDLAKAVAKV
Sequence of PIM1 (P11309 whole entry, species assumed): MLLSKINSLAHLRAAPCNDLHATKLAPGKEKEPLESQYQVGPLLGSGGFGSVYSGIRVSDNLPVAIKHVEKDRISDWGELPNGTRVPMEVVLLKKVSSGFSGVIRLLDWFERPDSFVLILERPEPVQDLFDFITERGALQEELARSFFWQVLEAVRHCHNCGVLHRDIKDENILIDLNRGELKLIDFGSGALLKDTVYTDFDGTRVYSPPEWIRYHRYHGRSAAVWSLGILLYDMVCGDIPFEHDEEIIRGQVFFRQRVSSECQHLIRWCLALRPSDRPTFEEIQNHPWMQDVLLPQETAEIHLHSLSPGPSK

As usually defined, the inhibition is the relative decrease from the control value, in per cent. For the compound `Nc1ncnc2c1ncn2[C@@H]1O[C@H](COC(=O)N2CCN(Cc3ccccc3)CC2CO)[C@@H](O)[C@H]1O` (stereo partly drawn) [Compound C13], the inhibition at 10 µM in experiment [1] was 44%; in [2] it was 2%; in experiment [3], 5%; in experiment [4], 11%; in experiment [5], 0%; in experiment [6] it was -5%. For the same compound, the inhibition at 10 µM in experiment [7] is -12%; in experiment [8] it was 6%; in experiment [9], 9%; in [10] it was 3%; in experiment [11], 7%; in experiment [12], -8%. Moreover, the results for the inhibition at 10 µM in experiment [13], in experiment [14] and in experiment [15] were 10%, 1% and 3%, respectively.

In the case of `CC(C)N1CCC(NC(=O)OC[C@H]2O[C@@H](n3cnc4c(N)ncnc43)[C@H](O)[C@@H]2O)CC1` [Compound C19], the inhibition at 10 µM in experiment [1] is 32%; in experiment [2], 3%; in experiment [3], 6%; in experiment [4], 7%; in [5] it was -3%; in experiment [6], 17%. Moreover, the inhibition at 10 µM is -6% in [7]; 5% in experiment [8]; 7% in experiment [9]; 1% in [10]; 3% in experiment [11]; -16% in experiment [12]. Further, the inhibition at 10 µM is 3% in experiment [13], -7% in experiment [14] and 5% in experiment [15].

For `Nc1ncnc2c1ncn2[C@@H]1O[C@H](COC(=O)NCCN2CCCC2=O)[C@@H](O)[C@H]1O` [Compound C22], the inhibition at 10 µM in experiment [1] was 15%; in experiment [2], 0%; in experiment [3] it was 0%; in experiment [4], 8%; in experiment [5], -5%; in experiment [6], 17%. The inhibition at 10 µM in experiment [7] was -5%; in experiment [8], 4%; in experiment [9] it was 7%; in experiment [10] it was 2%; in [11] it was 7%; in [12] it was -14%. For the same compound, the inhibition at 10 µM in experiment [13] is 0%; in [14] it was -6%; in [15], 2%.

On to `Nc1ncnc2c1ncn2[C@@H]1O[C@H](COC(=O)N2CCN(CCc3ccccc3)CC2)[C@@H](O)[C@H]1O` [Compound C26], for which the inhibition at 10 µM in experiment [1] is 57%; in [2], 0%; in experiment [3], -4%; in [4], 18%; in experiment [5], 2%; in [6], 17%. For the same compound, the inhibition at 10 µM in [7] was -8%; in experiment [8], 3%; in [9], 8%; in experiment [10], 0%; in experiment [11], 6%; in experiment [12], 20%. Also, the inhibition at 10 µM in experiment [13] is 8%; in experiment [14] it was -5%; in experiment [15], 3%.

As for `CN1CCN(CCNC(=O)OC[C@H]2O[C@@H](n3cnc4c(N)ncnc43)[C@H](O)[C@@H]2O)CC1` [Compound C46], the inhibition at 10 µM is 13% in experiment [1]; 4% in [2]; 0% in experiment [3]; 4% in [4]; 10% in experiment [5]; 13% in experiment [6]. Moreover, the inhibition at 10 µM in [7] was -5%; in experiment [8], 4%; in [9], 7%; in [10], 6%; in experiment [11], 4%; in experiment [12] it was 2%. For the same compound, the inhibition at 10 µM in [13] turned out to be 14%; in [14], 8%; in experiment [15], 5%.

For the compound `Nc1ncnc2c1ncn2[C@@H]1O[C@H](COC(=O)N2CCC(Cc3ccc(F)cc3)C2)[C@@H](O)[C@H]1O` (stereo partly drawn) [Compound C66], the inhibition at 10 µM is 57% in experiment [1]; -1% in experiment [2]; 4% in experiment [3]; -4% in [4]; -2% in [5]; 1% in experiment [6]. In addition, the inhibition at 10 µM was -5% in experiment [7]; 14% in [8]; 11% in experiment [9]; 6% in experiment [10]; 10% in [11]; 18% in experiment [12]. For the same compound, the inhibition at 10 µM is 16% in experiment [13], 7% in experiment [14] and -5% in experiment [15].

`N#CCCN1CCN(C(=O)OC[C@H]2O[C@@H](n3cnc4c(N)ncnc43)[C@H](O)[C@@H]2O)CC1` [Compound C70]: the inhibition at 10 µM in experiment [1] was 11%; in [2] it was 8%; in [3], 1%; in [4], 6%; in [5], -7%; in [6], -5%. Besides, the inhibition at 10 µM in experiment [7] is 0%; in experiment [8] it was 8%; in experiment [9] it was 4%; in experiment [10] it was 2%; in [11] it was 4%; in experiment [12], -11%. In addition, the inhibition at 10 µM worked out at 6% in experiment [13], 5% in experiment [14] and 4% in experiment [15].

Consider `CN(C)CCNC(=O)OC[C@H]1O[C@@H](n2cnc3c(N)ncnc32)[C@H](O)[C@@H]1O` [Compound C85], for which the inhibition at 10 µM in experiment [1] was 25%; in experiment [2] it was 4%; in experiment [3], 0%; in experiment [4], 4%; in experiment [5], -2%; in experiment [6], -8%. In addition, the inhibition at 10 µM in experiment [7] is -3%; in experiment [8], 4%; in experiment [9], 3%; in experiment [10], 7%; in experiment [11], 1%; in experiment [12] it was -9%. Further, the inhibition at 10 µM in experiment [13] is -1%; in experiment [14], 0%; in experiment [15] it was 7%.

For the compound `Nc1ncnc2c1ncn2[C@@H]1O[C@H](COC(=O)N2CCN(C(=O)N3CCOCC3)CC2)[C@@H](O)[C@H]1O` [Compound C89], the inhibition at 10 µM was 9% in [1]; 2% in experiment [2]; -2% in experiment [3]; -3% in experiment [4]; -3% in [5]; 9% in experiment [6]. Also, the inhibition at 10 µM in [7] was -10%; in [8], 2%; in experiment [9] it was 1%; in experiment [10], 0%; in experiment [11], -4%; in experiment [12] it was -20%. The values for the inhibition at 10 µM in [13], in experiment [14] and in experiment [15] were 0%, -4% and 8%, respectively.
